Measurements: publication PMC7736581, “Activation of the IRE1 RNase through remodeling of the kinase front pocket by ATP-competitive ligands” (Nature Communications, 2020)

Tests used:
Assay in all cases: biochemical
Parameters in all cases: Invitrogen kinase panel: Z'Lyte activity (ATP at Km) or LanthaScreen competitive ATP-site binding, percent inhibition
TGFBR1 = TGFBR1 (Homo sapiens, UniProt P36897)
CLK3 = CLK3 (Homo sapiens, UniProt P49761)
FGFR3 = FGFR3 (Homo sapiens, UniProt P22607)
ErbB2 = ErbB2 (Homo sapiens, UniProt P04626)
MuSK = MuSK (Homo sapiens, UniProt O15146)
PKC_delta = biological target: T1, PKC_delta (Homo sapiens, UniProt Q05655)
T1 construct: gene PRKCD
T1 sequence (Q05655 whole entry): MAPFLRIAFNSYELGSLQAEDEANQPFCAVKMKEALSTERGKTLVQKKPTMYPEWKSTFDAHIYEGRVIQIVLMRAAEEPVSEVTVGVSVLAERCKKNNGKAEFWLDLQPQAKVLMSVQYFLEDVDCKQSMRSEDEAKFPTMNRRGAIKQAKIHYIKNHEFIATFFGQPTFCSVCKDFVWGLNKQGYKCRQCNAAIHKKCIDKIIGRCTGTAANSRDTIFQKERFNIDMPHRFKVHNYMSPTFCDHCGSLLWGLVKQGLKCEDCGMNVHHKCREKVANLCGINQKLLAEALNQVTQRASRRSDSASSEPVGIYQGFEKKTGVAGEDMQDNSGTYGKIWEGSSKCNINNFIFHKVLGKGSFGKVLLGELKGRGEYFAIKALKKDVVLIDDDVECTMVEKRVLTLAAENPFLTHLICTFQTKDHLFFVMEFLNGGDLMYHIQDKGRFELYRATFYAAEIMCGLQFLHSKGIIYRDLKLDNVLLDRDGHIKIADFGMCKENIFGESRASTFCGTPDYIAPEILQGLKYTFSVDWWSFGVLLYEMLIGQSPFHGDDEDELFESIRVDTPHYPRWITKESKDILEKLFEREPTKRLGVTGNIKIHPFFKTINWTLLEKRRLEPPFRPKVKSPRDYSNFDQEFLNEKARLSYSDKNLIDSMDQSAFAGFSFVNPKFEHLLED

CLK1 = CLK1 (Homo sapiens, UniProt P49759)
CLK2 = CLK2 (Homo sapiens, UniProt P49760)
ZIPK = biological target: T2, ZIPK (Homo sapiens, UniProt O43293)
T2 construct: gene DAPK3

Blk = Blk (Homo sapiens, UniProt P51451)
Chain of Blk (P51451 whole entry): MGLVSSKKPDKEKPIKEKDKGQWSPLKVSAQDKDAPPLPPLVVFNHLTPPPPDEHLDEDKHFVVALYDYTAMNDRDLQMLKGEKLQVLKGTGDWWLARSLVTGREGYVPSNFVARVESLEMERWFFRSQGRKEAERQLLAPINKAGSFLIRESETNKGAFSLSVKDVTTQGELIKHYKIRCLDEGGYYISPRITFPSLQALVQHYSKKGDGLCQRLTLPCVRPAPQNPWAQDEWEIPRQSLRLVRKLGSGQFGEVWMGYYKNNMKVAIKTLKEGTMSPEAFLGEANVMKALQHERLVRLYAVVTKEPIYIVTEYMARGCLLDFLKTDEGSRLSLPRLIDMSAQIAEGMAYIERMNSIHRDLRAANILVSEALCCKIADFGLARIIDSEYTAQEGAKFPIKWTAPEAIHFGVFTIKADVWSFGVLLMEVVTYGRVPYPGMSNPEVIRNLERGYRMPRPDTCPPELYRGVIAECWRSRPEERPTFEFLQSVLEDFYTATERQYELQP

CK1_gamma2 = biological target: T3, CK1_gamma2 (Homo sapiens, UniProt P78368)
T3 construct: gene CSNK1G2

Flt4 = Flt4 (Homo sapiens, UniProt P35916)
PI3K-G = biological target: T4, PI3K-G (Homo sapiens, UniProt P48736)
T4 construct: gene PIK3CG
T4 sequence (P48736 whole entry): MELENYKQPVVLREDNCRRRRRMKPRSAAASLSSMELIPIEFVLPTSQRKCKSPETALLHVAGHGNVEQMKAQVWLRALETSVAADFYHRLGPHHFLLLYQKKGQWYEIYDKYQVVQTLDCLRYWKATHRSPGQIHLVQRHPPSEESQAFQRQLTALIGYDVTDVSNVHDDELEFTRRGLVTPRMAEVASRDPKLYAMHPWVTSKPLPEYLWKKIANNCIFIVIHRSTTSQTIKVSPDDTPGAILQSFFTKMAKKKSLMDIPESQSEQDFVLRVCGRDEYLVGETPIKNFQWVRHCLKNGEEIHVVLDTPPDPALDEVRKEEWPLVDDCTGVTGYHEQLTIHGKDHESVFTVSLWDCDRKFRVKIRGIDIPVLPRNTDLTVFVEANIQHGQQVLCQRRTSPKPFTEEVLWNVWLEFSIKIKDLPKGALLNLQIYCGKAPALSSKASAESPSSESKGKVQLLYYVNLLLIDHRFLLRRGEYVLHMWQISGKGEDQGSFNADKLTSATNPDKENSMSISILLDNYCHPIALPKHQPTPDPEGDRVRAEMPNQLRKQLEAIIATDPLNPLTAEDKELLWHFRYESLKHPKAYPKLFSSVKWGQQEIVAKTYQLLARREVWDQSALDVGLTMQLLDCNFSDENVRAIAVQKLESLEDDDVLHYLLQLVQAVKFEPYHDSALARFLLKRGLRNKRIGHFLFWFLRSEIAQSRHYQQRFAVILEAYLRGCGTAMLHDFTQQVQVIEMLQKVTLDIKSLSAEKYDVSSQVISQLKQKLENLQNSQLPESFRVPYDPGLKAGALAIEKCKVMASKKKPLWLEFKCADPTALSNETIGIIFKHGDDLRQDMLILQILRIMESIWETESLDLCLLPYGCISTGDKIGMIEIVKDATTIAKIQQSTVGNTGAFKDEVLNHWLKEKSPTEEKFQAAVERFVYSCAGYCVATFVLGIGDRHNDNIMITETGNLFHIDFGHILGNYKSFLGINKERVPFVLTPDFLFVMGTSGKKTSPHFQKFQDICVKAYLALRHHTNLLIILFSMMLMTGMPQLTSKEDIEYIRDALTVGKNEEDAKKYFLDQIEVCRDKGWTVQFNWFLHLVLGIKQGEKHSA

GRK6 = GRK6 (Homo sapiens, UniProt P43250)
Chain of GRK6 (P43250 whole entry): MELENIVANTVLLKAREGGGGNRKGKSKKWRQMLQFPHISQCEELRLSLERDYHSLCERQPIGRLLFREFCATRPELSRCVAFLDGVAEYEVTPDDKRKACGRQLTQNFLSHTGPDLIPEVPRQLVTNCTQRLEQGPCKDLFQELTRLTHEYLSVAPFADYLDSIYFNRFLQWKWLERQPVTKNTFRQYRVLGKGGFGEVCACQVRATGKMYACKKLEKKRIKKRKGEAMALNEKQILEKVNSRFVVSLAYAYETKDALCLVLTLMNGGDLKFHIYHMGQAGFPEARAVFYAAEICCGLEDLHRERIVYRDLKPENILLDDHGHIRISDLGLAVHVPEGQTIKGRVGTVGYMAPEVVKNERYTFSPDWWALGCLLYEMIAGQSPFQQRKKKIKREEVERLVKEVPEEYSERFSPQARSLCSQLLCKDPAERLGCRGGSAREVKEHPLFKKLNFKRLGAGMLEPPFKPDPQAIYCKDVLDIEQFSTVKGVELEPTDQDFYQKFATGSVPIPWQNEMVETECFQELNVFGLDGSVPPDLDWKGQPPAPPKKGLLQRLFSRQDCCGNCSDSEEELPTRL

PAK6 = PAK6 (Homo sapiens, UniProt Q9NQU5)
CAMKK2 = CAMKK2 (Homo sapiens, UniProt Q96RR4)
DDR1 = DDR1 (Homo sapiens, UniProt Q08345)
AKT2 = AKT2 (Homo sapiens, UniProt P31751)
PrKX = PrKX (Homo sapiens, UniProt P51817)
Chain of PrKX (P51817 whole entry): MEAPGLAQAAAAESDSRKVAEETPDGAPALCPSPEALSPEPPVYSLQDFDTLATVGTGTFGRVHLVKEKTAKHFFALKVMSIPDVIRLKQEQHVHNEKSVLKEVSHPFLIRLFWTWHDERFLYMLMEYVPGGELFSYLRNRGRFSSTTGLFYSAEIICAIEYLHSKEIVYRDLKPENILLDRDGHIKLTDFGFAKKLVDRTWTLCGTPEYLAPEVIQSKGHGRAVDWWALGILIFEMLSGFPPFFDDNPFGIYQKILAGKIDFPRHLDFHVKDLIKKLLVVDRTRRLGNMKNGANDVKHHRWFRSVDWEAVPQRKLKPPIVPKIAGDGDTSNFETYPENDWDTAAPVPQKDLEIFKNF

TSSK1 = biological target: T5, TSSK1 (Homo sapiens, UniProt Q9BXA7)
T5 construct: gene TSSK1B

ACVR2B = ACVR2B (Homo sapiens, UniProt Q13705)
Chain of ACVR2B (Q13705 whole entry): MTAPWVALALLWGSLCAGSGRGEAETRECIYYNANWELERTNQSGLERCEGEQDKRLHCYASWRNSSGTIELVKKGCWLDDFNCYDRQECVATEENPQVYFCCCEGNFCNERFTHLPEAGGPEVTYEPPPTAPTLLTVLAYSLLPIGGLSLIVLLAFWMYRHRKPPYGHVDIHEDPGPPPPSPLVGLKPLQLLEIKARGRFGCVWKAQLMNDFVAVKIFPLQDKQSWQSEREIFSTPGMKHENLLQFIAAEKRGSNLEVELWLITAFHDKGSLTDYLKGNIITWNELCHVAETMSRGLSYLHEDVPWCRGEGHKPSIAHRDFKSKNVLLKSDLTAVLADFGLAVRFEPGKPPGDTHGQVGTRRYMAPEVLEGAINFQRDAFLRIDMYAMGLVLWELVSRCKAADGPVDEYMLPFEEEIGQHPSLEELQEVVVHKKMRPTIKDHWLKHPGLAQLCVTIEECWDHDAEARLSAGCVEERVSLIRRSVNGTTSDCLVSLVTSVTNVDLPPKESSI

Fes = Fes (Homo sapiens, UniProt P07332)
Chain of Fes (P07332 whole entry): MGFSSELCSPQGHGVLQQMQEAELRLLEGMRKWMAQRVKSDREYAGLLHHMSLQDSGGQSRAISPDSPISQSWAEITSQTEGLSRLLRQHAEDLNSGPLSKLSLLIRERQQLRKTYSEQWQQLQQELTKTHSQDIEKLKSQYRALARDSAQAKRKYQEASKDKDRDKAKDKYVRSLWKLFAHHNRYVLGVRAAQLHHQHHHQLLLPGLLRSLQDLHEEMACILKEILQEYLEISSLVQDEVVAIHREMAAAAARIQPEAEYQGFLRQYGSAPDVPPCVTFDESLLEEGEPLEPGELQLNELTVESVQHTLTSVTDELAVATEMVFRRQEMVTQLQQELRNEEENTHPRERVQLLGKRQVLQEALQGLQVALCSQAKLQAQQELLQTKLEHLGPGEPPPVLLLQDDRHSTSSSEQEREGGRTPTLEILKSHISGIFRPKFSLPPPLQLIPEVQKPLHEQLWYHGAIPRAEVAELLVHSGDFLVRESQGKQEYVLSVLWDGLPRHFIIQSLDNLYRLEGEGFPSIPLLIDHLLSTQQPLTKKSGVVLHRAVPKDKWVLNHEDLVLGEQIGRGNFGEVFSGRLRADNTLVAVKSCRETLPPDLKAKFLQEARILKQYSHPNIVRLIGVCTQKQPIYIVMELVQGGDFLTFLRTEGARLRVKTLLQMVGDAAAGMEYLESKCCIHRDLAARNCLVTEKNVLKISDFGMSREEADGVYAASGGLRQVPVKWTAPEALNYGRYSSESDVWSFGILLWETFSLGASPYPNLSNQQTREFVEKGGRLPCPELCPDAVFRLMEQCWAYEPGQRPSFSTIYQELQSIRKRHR

EGFR = EGFR (Homo sapiens, UniProt P00533)
MLK2 = biological target: T6, MLK2 (Homo sapiens, UniProt Q02779)
T6 construct: gene MAP3K10

PKC_alpha = biological target: T7, PKC_alpha (Homo sapiens, UniProt P17252)
T7 construct: gene PRKCA

Chain of CLK3 (P49761 whole entry): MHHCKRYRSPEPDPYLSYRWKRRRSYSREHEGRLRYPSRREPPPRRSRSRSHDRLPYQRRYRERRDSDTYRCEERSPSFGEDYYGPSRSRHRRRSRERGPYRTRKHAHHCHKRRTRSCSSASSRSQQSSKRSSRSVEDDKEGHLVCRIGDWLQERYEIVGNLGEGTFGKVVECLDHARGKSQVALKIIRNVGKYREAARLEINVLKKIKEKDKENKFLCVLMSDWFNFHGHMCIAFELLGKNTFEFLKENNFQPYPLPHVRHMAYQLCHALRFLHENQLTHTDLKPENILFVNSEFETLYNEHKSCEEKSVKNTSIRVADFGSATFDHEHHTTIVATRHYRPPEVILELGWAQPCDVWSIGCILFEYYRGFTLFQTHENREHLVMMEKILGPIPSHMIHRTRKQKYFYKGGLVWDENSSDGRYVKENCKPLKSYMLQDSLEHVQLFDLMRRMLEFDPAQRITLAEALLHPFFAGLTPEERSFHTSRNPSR

SMILES	inhibition at 1 µM (TGFBR1) [%]	inhibition at 1 µM (CLK3) [%]	inhibition at 1 µM (FGFR3) [%]	inhibition at 1 µM (ErbB2) [%]	inhibition at 1 µM (MuSK) [%]	inhibition at 1 µM (PKC_delta) [%]	inhibition at 1 µM (CLK1) [%]	inhibition at 1 µM (CLK2) [%]	inhibition at 1 µM (ZIPK) [%]	inhibition at 1 µM (Blk) [%]	inhibition at 1 µM (CK1_gamma2) [%]	inhibition at 1 µM (Flt4) [%]	inhibition at 1 µM (PI3K-G) [%]	inhibition at 1 µM (GRK6) [%]	inhibition at 1 µM (PAK6) [%]	inhibition at 1 µM (CAMKK2) [%]	inhibition at 1 µM (DDR1) [%]	inhibition at 1 µM (AKT2) [%]	inhibition at 1 µM (PrKX) [%]	inhibition at 1 µM (TSSK1) [%]	other results
CCOC(=O)Nc1cccc2c(Oc3ncccc3-c3ccnc(N[C@H]4CCCNC4)n3)c(C)ccc12 [G-1749]	5.5	7	-6	7.5	13.5	12	6	18.5	1	10	-4.5	5.5	16	-1	12.5	-0.5	46	6	-0.5	8.5	inhibition at 1 µM (ACVR2B): 18.5%; inhibition at 1 µM (Fes): 5%; inhibition at 1 µM (EGFR): -6%; inhibition at 1 µM (MLK2): 0.5%; inhibition at 1 µM (PKC_alpha): 1.5%
CC#CC(=O)Nc1cccc2c(Oc3ncccc3-c3ccnc(N[C@H]4CCCNC4)n3)c(C)ccc12 [G-7658]	7.5	11.5	-5	3.5	9.5	15	5.5	23	0	7.5	-4.5	6.5	-7	1.5	11	-0.5	29	4	-1.5	7.5	inhibition at 1 µM (ACVR2B): 8.5%; inhibition at 1 µM (Fes): 3.5%; inhibition at 1 µM (EGFR): -9%; inhibition at 1 µM (MLK2): 4%; inhibition at 1 µM (PKC_alpha): 4%
